# Reference: PubChem BioAssay AID1985 (Southern Research Specialized Biocontainment Screening …, 2009)
# Several values for one entry are separate records, joined by “and”; a condition that tells them apart may be missing. Identical values can stand only once.
# Tested on: S. Typhi PhoP-promoter GFP reporter, fluorescence, 4 h
# Assay: PhoP regulon inhibitor project modified counter assay, GFP fluorescence readout, dose response (AID 1985)
row,SMILES,IC50
1,COc1c2ccccc2nc2ccccc12,28.8 µM
2,CCOC(=O)Cn1c(=N)n(CCOc2ccc3ccccc3c2)c2ccccc21,79.1 µM
3,Clc1ccc(C(c2ccc(Cl)cc2)n2cc[n+](CC(OCc3ccc(Cl)cc3Cl)c3ccc(Cl)cc3Cl)c2)cc1 (stereo not drawn),15 µM
4,Cc1ccc(C(=O)NNC(=S)NC(=O)COc2ccccc2)cc1,47.5 µM
5,CN1C(=O)NC(c2ccc(O)cc2)C(C(=O)c2cccs2)C1(O)C(F)(F)F (stereo not drawn),19.9 µM
6,O=C(N/N=C/c1ccc([N+](=O)[O-])o1)C1CCCC1,37.7 µM
7,COc1nccnc1NS(=O)(=O)c1ccc(N=Cc2c(C)[nH]n(-c3ccc(C)c(C)c3)c2=O)cc1,114 µM
8,COc1ccc(/C=N/Nc2cc(C)nc3c(C)cccc23)cc1,37.2 µM
9,CCCCCCCCCCCCCCCC[n+]1cccc(C(=O)N(CC)CC)c1,20.1 µM
10,CCCCCCCCCCOC(=O)Cn1c(COc2ccc(OC)cc2)[n+](C)c2ccccc21,19.4 µM and 18.5 µM
11,c1ccc(CN2CCN(c3ncnc4c3[nH]c3ccccc34)CC2)cc1,103 µM
12,O=c1c2c([nH]c3ccccc13)CCCCC2,78.4 µM
13,COc1ccccc1CNCCc1ccc(F)cc1,36 µM
14,COc1cc(CNCCc2ccccc2)cc(Cl)c1OCc1ccccc1,78.9 µM
15,O=[N+]([O-])c1cccc2c(N3CCCC3)ccnc12,17.6 µM
16,O=C(C[n+]1cccc(CNC(=O)c2ccc(OC(F)F)cc2)c1)Nc1ccc(SC(F)F)cc1,42.1 µM
17,O=c1[nH]c2ccccc2n2c(=S)[nH]nc12,68.5 µM
18,CSc1ccc2c(c1)C(N1CCN(C)CC1)Cc1ccc(F)cc1S2 (stereo not drawn),51.8 µM
19,C/C(=C\C(=O)OCCCCCCCCC(=O)O)C[C@@H]1OC[C@H](C[C@@H]2O[C@H]2[C@@H](C)[C@H](C)O)[C@@H](O)[C@H]1O,17.5 µM
20,CN1C(=O)NC(c2cccc(O)c2)C(C(=O)c2cccs2)C1(O)C(F)(F)F (stereo not drawn),40.6 µM
21,CC(=O)NC(c1cccs1)c1cc([N+](=O)[O-])c2cccnc2c1O (stereo not drawn),31.3 µM
22,NC1=NC[C@H](c2ccccc2)N1CCCCC1CCCCC1,38.5 µM

row,SMILES,IC50
1,NC(N)=N/N=C/c1ccc(OCc2ccccc2Cl)cc1,33.4 µM
2,Cc1ccccc1C(=O)Nc1cccc(C(=O)N/N=C/c2cc(Cl)cc([N+](=O)[O-])c2O)c1,33.8 µM
3,Cc1ccc2c(c1)N/C(=C(\C=C(/Cl)[N+](=O)[O-])[N+](=O)[O-])N2,81.1 µM
4,Cc1cc(C)c2c(N)c3ccccc3nc2n1,86 µM
5,Cc1ccc(-n2c(-c3ccc(Br)cc3)c[n+]3c2CCc2ccc4cccnc4c2-3)cc1,97.5 µM
6,O=C(c1cccs1)c1no[n+]([O-])c1C(=O)c1cccs1,14 µM
7,c1ccc2c(NCCc3c[nH]c4ccccc34)c3ccccc3nc2c1,75.7 µM
8,C#CCOCCOCCOCCNc1nc(N2CCN(C(=O)CCCCCCCCCCNC(=O)[C@H](CCCCN)n3cc(C[C@@H](C)CC)nn3)CC2)nc(N2CCN(C(=O)CCCCCCCCCCNC(=O)[C@@H]([C@H](C)O)n3cc(C)nn3)CC2)n1,138 µM
9,CN(C)C1C(=O)C(C(N)=O)=C(O)C2(O)C(=O)C3=C(O)c4c(O)cccc4C(C)(O)C3CC12 (stereo not drawn),2.08 µM
10,NC(=NCCCCCCN=C(N)/N=C(\N)Nc1ccc(Cl)cc1)/N=C(\N)Nc1ccc(Cl)cc1,3.89 µM and 3.25 µM and 5.35 µM
11,Cc1cc(C)n(-c2nc(SCCN(C)C)c3c4c(sc3n2)CCCC4)n1,80.1 µM
12,CCCCCCCCCCOC(=O)Cn1c(COc2ccc(C)cc2)[n+](C)c2ccccc21,16.6 µM
13,COc1cc2c(cc1OC)[C@H](Cc1ccc(O)cc1)NCC2,87 µM
14,Nc1cccc2nc3ccccc3cc12,44.5 µM
15,OC(CNCc1ccco1)Cn1c2ccc(Br)cc2c2cc(Br)ccc21 (stereo not drawn),28 µM
16,O=C(C[n+]1cc(Br)cc2ccccc21)c1ccc(Cl)cc1,57.8 µM
17,COc1cccc(/C=N\NC(=O)Cn2nnc3ccccc32)c1O,97.7 µM
18,Nc1nonc1-n1nnc(C(=O)N/N=C/c2cc(Br)ccc2O)c1CSC1=NCCS1,26 µM
19,CC/C(=N\Nc1ccnc2cc(Cl)ccc12)c1ccc(O)cc1,148 µM
20,O=[N+]([O-])c1cccc(NNS(=O)(=O)c2ccccc2F)c1,8.04 µM
21,Cc1ccc(-c2c[n+](CC(=O)Nc3nc(-c4ccccc4)cs3)c3n2CCC3)cc1,90.4 µM
22,Cc1cc(C)c(OCCCCNCc2ccccc2)c(Cl)c1,113 µM

row,SMILES,IC50
1,Cc1ccc(OCC(O)Cn2c(=N)n(CCN3CCCCC3)c3ccccc32)cc1 (stereo not drawn),67.9 µM
2,OCCNc1nc(Nc2ccc(Br)cc2)nc2ccccc12,19 µM
3,CCCCCOc1ccc(CSC(=N)N)cc1[N+](=O)[O-],20.9 µM
4,O=C(N[C@H](CO)[C@H](O)c1ccc([N+](=O)[O-])cc1)C(Cl)Cl,2.71 µM
5,CN(CC(=O)Nc1ccc(F)c(F)c1F)c1cnccn1,108 µM
6,O=C(N/N=C\c1ccc(Cl)s1)c1cccs1,32.9 µM
7,C(=N\Nc1ccccn1)/c1cccnc1,37.5 µM
8,CCCCCCCCCCCCCCCC[N+](C)(C)CCN(Cc1ccc(OC)cc1)c1ncccn1,23.9 µM
9,CCC(=O)N1CCN(c2cc3c(cc2F)c(=O)c(C(=O)O)cn3CC)CC1,126 µM
10,CCc1nccc2c1[nH]c1ccccc12,123 µM
11,Cc1ccc(CC(=O)Nc2ncc([N+](=O)[O-])s2)cc1,94.4 µM
12,O=C1C(=O)c2ccccc2-c2ccccc21,19 µM
13,CN1CCc2c(sc(NC(=O)c3ccc([N+](=O)[O-])o3)c2C(N)=O)C1,11 µM
14,C#CCOCCOCCOCCNc1nc(N2CCN(C(=O)CCCCCCCCCCNC(=O)[C@H](CO)n3cc(CCCCCN)nn3)CC2)nc(N2CCN(C(=O)CCCCCCCCCCNC(=O)[C@H](CCCN=C(N)N)n3cc(C[C@@H](C)CC)nn3)CC2)n1,142 µM
15,O=C(/C=C/c1ccccc1)c1ccc(NC2=NCCCS2)cc1,117 µM
16,CCNC(=O)Oc1ccc[nH]c1=O,99.4 µM
17,CSc1ccc2c(c1)C(N1CCN(C)CC1)Cc1ccccc1S2 (stereo not drawn),55.6 µM
18,CN(C)C1C(=O)C(C(N)=O)=C(O)C2(O)C(=O)C3=C(O)c4c(O)cccc4C(C)(O)C3C(O)C12 (stereo not drawn),1.54 µM
19,COc1cccc(/C=N/NC(=O)C(=O)N2CCCC2)c1O,101 µM
20,COc1ccc(C2NCCc3c2[nH]c2ccccc32)cc1COc1ccc(F)cc1 (stereo not drawn),78.5 µM
21,O=Nc1ccc(O)c2ncccc12,24.6 µM
22,CCCCCC(CC(=O)NO)C(=O)NC(C(=O)N1CCCC1CO)C(C)C (stereo not drawn),13.7 µM

row,SMILES,IC50
1,O=C(Nc1ccc(Cc2ccncc2)cc1)c1ccc([N+](=O)[O-])o1,39.5 µM
2,CCOC(=O)N1CCN(C(=O)c2cn(CC)c3cc(N4CCN(C)CC4)c(F)cc3c2=O)CC1,7.67 µM
3,CCCNC(=O)c1cn(CC)c2cc(N3CCN(C)CC3)c(F)cc2c1=O,28 µM
4,CCc1ccc(-c2nn(-c3ccccc3)cc2CSC(=N)N)cc1,34.1 µM
5,CN(C)CC/C=C1\c2ccccc2Sc2ccc(Cl)cc21,98.5 µM
6,CN(C)c1ccc(O)c2c1CC1CC3C(N(C)C)C(=O)C(C(N)=O)=C(O)[C@@]3(O)C(=O)C1=C2O (stereo partly drawn),3.21 µM
7,Cc1occc1C(=O)N/N=C/c1cccs1,45.7 µM
8,Cc1ccc(S(=O)(=O)NNc2ccccc2)cc1,134 µM
9,Cc1ccc2nc(N(CCCN(C)C)C(=O)c3ccc4c(c3)CCCC4)sc2c1,78.5 µM
10,Cc1ccc(C(=O)Sc2cccccc2=O)cc1,1.97 µM
11,Oc1[nH]c2ccccc2c1N=NC(=S)N1CCOCC1,17.4 µM
12,C#CCOCCOCCOCCNc1nc(N2CCN(C(=O)CCCCCCCCCCNC(=O)Cn3cc(CCCCCN)nn3)CC2)nc(N2CCN(C(=O)CCCCCCCCCCNC(=O)[C@H]([C@@H](C)CC)n3cc(CCCCCN)nn3)CC2)n1,71.3 µM
13,C=C1c2c(Cl)ccc(O)c2C(O)=C2C(=O)[C@]3(O)C(O)=C(C(N)=O)C(=O)[C@@H](N(C)C)[C@@H]3[C@@H](O)C12 (stereo partly drawn),0.924 µM
14,Cc1occc1C(=O)N/N=C/C=C/c1ccccc1,41.6 µM
15,COc1cc(CNCCc2c[nH]c3ccccc23)ccc1OCc1ccc(F)cc1,82.7 µM
16,CCn1cc(C(=O)NCCCN(C)C)c(=O)c2cc(F)c(N3CCN(C)CC3)cc21,35.5 µM
17,c1ccc2cc(CSCc3nc4ccccc4[nH]3)ccc2c1,103 µM
18,CCN1CCN(C2=C(NS(=O)(=O)c3ccc(Br)cc3)C(=O)c3ccccc3C2=O)CC1,47.4 µM
19,CO[C@H]1C=CO[C@@]2(C)Oc3c(C)c(O)c4c(O)c(c(C=NN5CCN(C)CC5)c(O)c4c3C2=O)NC(=O)C(C)=CC=C[C@H](C)[C@H](O)[C@@H](C)[C@@H](O)[C@@H](C)[C@H](OC(C)=O)[C@@H]1C,23.8 µM
20,CN(C)CCCNc1c2ccccc2nc2ccccc12,64.3 µM
21,O=[N+]([O-])c1cc(F)c2cccnc2c1O,4.83 µM
22,C[C@H]1c2cccc(O)c2C(O)=C2C(=O)C3(O)C(O)=C(C(N)=O)C(=O)[C@@H](N(C)C)[C@@H]3[C@@H](O)[C@@H]21 (stereo partly drawn),1.9 µM

row,SMILES,IC50
1,O=C(c1ccccc1)c1c2c(cc3sc4ccccc4[n+]13)-c1cccc3cccc-2c13,77.3 µM
2,O=C(Nc1ccc(Cl)cc1)Nc1ccc2c(c1)N1CCN=C1S2,57.1 µM
3,OCCCNc1c2ccccc2nc2ccccc12,136 µM
4,N#C/C(=N\Nc1ccc([N+](=O)[O-])cc1)C(N)=S,110 µM
5,O=C(c1ccc([N+](=O)[O-])o1)N1CCOCC1,24.4 µM
6,O=C(CSc1nnc(-c2ccccc2)n1-c1ccc(Cl)cc1)NC1CCS(=O)(=O)C1 (stereo not drawn),31.2 µM
7,CC(C)[C@@H]1CC[C@@H](C)C[C@H]1OC(=O)C[n+]1cc(-c2ccc(Cl)cc2)n2c1CCCCC2,142 µM
8,NC1CCN(c2nc3c(cc2F)c(=O)c(C(=O)O)cn3-c2ccc(F)cc2F)C1 (stereo not drawn),< 0.23 µM
9,O=C(O)c1ccc(N2C(=O)CSC2=S)cc1,144 µM
10,O=C(Nc1cccc(C2=NCCN2)c1)Nc1cccc(C2=NCCN2)c1,36.2 µM
11,Nc1nnc(-c2cccc(Cl)c2Cl)c(N)n1,33 µM
12,[O-][n+]1c2c(c3c4non(O)c4ccc31)CCCC2,130 µM
13,O=C(Nc1ccc(-c2nc3ccccc3[nH]2)cc1)c1ccco1,87 µM
14,N=C(N)c1ccc(/C=C/c2ccc(C(=N)N)cc2O)cc1,16.2 µM
15,CCCCCCC[N+](CC)(CC)CCCCc1ccc(Cl)cc1,80 µM
16,COc1cc(Br)cc(C=Nc2cccc(C(F)(F)F)c2)c1O,69.4 µM
17,NC1CCN(c2c(F)cc3c(=O)c(C(=O)O)cn(C4CC4)c3c2Cl)C1 (stereo not drawn),< 0.23 µM
18,CN(C)c1ccc(/C=C/c2ccc3ccccc3[n+]2C)cc1,19.5 µM
19,CNC[C@H](CC1CCCCC1)NC[C@H](Cc1ccccc1)NCCC12CC3CC(CC(C3)C1)C2,14.8 µM
20,CCn1cc(C(=O)O)c(=O)c2cnc(N3CCNCC3)nc21,113 µM
